The target of the assay is T1, ratTRPA1 (rTRPA1) (Rattus norvegicus, UniProt Q6RI86).
T1 construct: expressed in transfected cells
Description: TRPA1 calcium imaging in CHO cells (AITC activation). It is filed as cell-based. The conditions noted are these: CHO cells expressing TRPA1, Fluo-4, AITC 160 μM. As to the method: TRPA1 is known to be responsible for inflammatory and neuropathic pain appearance; therefore, it can be considered as a potential biological target for the analgesic action of the studied pyrazolones. Therefore, we studied the effect of pyrazolone 6b, showing the maximum analgesic effect in the hot plate test at 1 h on the activation of the TRPA1 ion channel by allyl isothiocyanate (AITC). The cell line CHO (Chinese hamster ovary cell) stably expressing the TRPA1 channel was used for measurement. Activation by a specific agonist was measured by fluorescence spectroscopy using Fluo-4 dye by changing the level of intracellular calcium.
Testing for receptors ratTRPA1 (rTRPA1) and ratTRPV1 (rTRPV1), stably expressed in CHO cells, was carried out using the calcium imaging method as described in [123, 124]. Fluorescence was performed using NOVOstar (BMG LABTECH, Ortenberg, Germany). The tested substances in 26% DMSO solution or 26% DMSO solution alone (negative control) (5 μL) were added to the cells loaded with the cytoplasmic calcium indicator Fluo-4AM using Fluo-4 Direct™ Calcium Assay Kit (Thermo Fisher Scientific Inc., Waltham, MA, USA) (60 μL) and incubated 5–10 min. Final DMSO concentration was 2%. Changes in cell fluorescence (λex = 485 nm, λem = 520 nm) were monitored at 25 °C before and after the addition of relevant agonist. […]

The structures appear in SMILES notation.

T1 sequence (Q6RI86 whole entry): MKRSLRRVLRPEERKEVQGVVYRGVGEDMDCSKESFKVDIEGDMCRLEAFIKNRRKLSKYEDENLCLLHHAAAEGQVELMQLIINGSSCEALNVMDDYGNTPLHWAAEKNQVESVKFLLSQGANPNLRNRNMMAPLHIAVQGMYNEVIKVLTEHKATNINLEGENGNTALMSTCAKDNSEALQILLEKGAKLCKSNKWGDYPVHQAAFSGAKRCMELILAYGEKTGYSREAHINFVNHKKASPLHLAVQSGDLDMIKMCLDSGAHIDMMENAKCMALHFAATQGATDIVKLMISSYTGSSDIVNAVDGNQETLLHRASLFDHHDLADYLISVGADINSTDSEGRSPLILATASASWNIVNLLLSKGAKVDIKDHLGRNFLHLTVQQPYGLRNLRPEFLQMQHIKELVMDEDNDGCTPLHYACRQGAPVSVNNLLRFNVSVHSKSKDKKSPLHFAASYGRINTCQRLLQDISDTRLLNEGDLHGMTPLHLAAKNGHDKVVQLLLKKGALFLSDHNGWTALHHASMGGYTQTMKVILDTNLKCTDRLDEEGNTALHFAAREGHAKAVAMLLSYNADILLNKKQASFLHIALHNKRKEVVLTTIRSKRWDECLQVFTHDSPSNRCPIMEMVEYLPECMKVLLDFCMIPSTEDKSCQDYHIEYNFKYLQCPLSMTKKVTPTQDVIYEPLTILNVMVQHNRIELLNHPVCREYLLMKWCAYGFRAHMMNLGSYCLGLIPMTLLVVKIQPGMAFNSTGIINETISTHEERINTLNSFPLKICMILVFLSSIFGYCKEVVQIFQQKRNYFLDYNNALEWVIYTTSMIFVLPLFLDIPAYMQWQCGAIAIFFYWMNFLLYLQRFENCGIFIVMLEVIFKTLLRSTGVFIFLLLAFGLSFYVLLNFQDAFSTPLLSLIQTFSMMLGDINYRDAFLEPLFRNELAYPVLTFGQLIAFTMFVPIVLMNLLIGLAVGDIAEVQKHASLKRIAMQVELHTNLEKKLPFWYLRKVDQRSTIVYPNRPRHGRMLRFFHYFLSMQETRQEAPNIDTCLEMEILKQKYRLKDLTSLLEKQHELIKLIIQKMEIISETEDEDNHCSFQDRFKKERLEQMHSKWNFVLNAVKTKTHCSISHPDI

As to `Cc1ccc(N/N=C2\C(=O)N(c3ccccc3)N=C2C(F)(F)C(F)(F)F)cc1` [6b, (4Z)-4-[2-(4-Methylphenyl)hydrazinylidene]-5-(pentafluoroethyl)-2-phenyl-2,4-dihydro-3H-pyrazol-3-one], the “effect on AITC-induced TRPA1 channel activation” value is recorded as “no significant effect”.
